Consider 23 compounds from patent US20250017914A1, “6-AZA-QUINOLINE DERIVATIVES AND RELATED USES” (Black Diamond Therapeutics, Inc., priority 2021, published 2025).

The target in this test is T1, BaF3 BRAF-KIAA1549 fusion cells (Homo sapiens, UniProt P15056).
T1 construct: The BRAF-KIAA1549 fusion mutant was subcloned into pMXs-IRES-Blasticidin (RTV-016, Cell Biolabs, San Diego, CA); No tag given; Q9HCM3 (UPF0606 protein KIAA1549)
Nature of the test: BaF3 BRAF-KIAA1549 fusion cell proliferation assay (CellTiterGlo, 96 hours). Type of test: cell-based. The conditions noted are these: Table A2. Put shortly:
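BaF3 cells retrovirally transduced with BRAF-KIAA1549 fusion and blasticidin-selected were plated at 7×10^4 c/well in RPMI, 10% heat-inactivated FBS, 1% L-glutamine, and exposed to compound for 96 hours. Growth was read as ATP content by CellTiterGlo luminescence. IC50 was fitted by Levenberg-Marquardt, normalised to DMSO-treated cells.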

Structures are written as SMILES.

T1 sequence (P15056 whole entry, change not shown, the tested form may be a part): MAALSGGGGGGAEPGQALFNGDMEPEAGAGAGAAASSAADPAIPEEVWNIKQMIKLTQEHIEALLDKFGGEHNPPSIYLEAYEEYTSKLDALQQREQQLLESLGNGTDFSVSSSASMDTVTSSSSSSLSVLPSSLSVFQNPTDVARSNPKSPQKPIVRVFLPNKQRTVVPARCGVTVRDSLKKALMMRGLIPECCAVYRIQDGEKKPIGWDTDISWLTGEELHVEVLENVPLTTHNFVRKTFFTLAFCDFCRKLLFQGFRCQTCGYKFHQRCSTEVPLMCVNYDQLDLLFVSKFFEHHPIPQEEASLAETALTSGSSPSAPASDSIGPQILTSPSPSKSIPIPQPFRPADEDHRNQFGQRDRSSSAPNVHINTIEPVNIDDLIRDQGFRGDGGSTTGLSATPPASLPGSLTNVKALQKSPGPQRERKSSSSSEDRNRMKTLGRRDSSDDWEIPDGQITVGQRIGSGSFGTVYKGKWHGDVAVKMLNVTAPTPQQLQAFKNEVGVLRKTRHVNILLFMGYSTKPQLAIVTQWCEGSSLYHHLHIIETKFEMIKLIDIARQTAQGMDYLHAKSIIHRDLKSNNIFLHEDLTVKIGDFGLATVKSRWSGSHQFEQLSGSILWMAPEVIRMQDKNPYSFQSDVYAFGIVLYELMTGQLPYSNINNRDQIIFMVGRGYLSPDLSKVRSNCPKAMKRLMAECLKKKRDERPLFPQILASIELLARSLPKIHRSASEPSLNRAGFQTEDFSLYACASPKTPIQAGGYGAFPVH

By GI50 is commonly meant the concentration giving 50% growth inhibition. Read a low GI50 as greater sensitivity of the cells. In the case of `CNc1cc2ncc(-c3cc(NC(=O)c4cnc5n4CCCC5)cnc3C)cc2cn1` [Compound 209, N-(6-methyl-5-(7-(methylamino)-1,6-naphthyridin-3-yl)pyridin-3-yl)-5,6,7,8-tetrahydroimidazo[1,2-a]pyridine-3-carboxamide], the GI50 was not below 500 nM. Under `CNc1cc2ncc(-c3cc(NC(=O)c4cccc(C(O)C(F)(F)F)n4)cnc3C)cc2cn1` (centres unmarked) [Compound 210, N-(6-methyl-5-(7-(methylamino)-1,6-naphthyridin-3-yl)pyridin-3-yl)-6-(2,2,2-trifluoro-1-hydroxyethyl)picolinamide] stands not below 500 nM; under `CNc1cc2ncc(-c3cc(NC(=O)c4nccc5c4OCCC5O)cnc3C)cc2cn1` (centres unmarked) [Compound 211, 4-hydroxy-N-(6-methyl-5-(7-(methylamino)-1,6-naphthyridin-3-yl)pyridin-3-yl)-3,4-dihydro-2H-pyrano[2,3-c]pyridine-8-carboxamide], not below 500 nM; under `CNc1cc2ncc(-c3cc(NC(=O)c4cccc5c4CCC5=O)cnc3C)cc2cn1` [Compound 212, N-(6-methyl-5-(7-(methylamino)-1,6-naphthyridin-3-yl)pyridin-3-yl)-1-oxo-2,3-dihydro-1H-indene-4-carboxamide], not below 500 nM.

For `CNc1cc2ncc(-c3cc(C(=O)Nc4cc(C(C)(C)C#N)ccn4)cnn3)cc2cn1` [Compound 213, N-(4-(2-cyanopropan-2-yl)pyridin-2-yl)-6-(7-(methylamino)-1,6-naphthyridin-3-yl)pyridazine-4-carboxamide], the GI50 was not below 500 nM. Consider `CNc1cc2ncc(-c3cc(NC(=O)c4cnc5n4CCCC5C)ccc3C)cc2cn1` (centres unmarked) [Compound 214, 8-methyl-N-(4-methyl-3-(7-(methylamino)-1,6-naphthyridin-3-yl)phenyl)-5,6,7,8-tetrahydroimidazo[1,2-a]pyridine-3-carboxamide], for which the GI50 was 20 to 100 nM. Under `CNc1cc2ncc(-c3cc(NC(=O)c4cccc5c4NC(=O)C5(C)C)ccc3C)cc2cn1` [Compound 215, 3,3-dimethyl-N-(4-methyl-3-(7-(methylamino)-1,6-naphthyridin-3-yl)phenyl)-2-oxoindoline-7-carboxamide] stands 20 to 100 nM; under `CNc1cc2ncc(-c3cc(NC(=O)c4cnc5n4CCCC5)ccc3C)cc2cn1` [Compound 216, N-(4-methyl-3-(7-(methylamino)-1,6-naphthyridin-3-yl)phenyl)-5,6,7,8-tetrahydroimidazo[1,2-a]pyridine-3-carboxamide], 100 to 500 nM. The figure for `CNc1cc2ncc(-c3cc(NC(=O)c4ccnc(C(C)(C)C#N)c4)c(F)cc3C)cc2cn1` [Compound 217, 2-(2-cyanopropan-2-yl)-N-(2-fluoro-4-methyl-5-(7-(methylamino)-1,6-naphthyridin-3-yl)phenyl)isonicotinamide] is 20 to 100 nM. The figure for `CNc1cc2ncc(-c3cc(NC(=O)c4cc(C(N(C)C)C(F)(F)F)ccn4)ccc3C)cc2cn1` (centres unmarked) [Compound 218, 4-(1-(dimethylamino)-2,2,2-trifluoroethyl)-N-(4-methyl-3-(7-(methylamino)-1,6-naphthyridin-3-yl)phenyl)picolinamide] is 20 to 100 nM; for `CNc1cc2ncc(-c3cc(NC(=O)c4cccc5c4CCC5O)cnc3C)cc2cn1` (centres unmarked) [Compound 219, 1-hydroxy-N-(6-methyl-5-(7-(methylamino)-1,6-naphthyridin-3-yl)pyridin-3-yl)-2,3-dihydro-1H-indene-4-carboxamide] it is not below 500 nM; for `CNc1cc2ncc(-c3cc(NC(=O)c4cnc5n4CC(C(F)(F)F)CC5)ccc3C)cc2cn1` (centres unmarked) [Compound 220, N-(4-methyl-3-(7-(methylamino)-1,6-naphthyridin-3-yl)phenyl)-6-(trifluoromethyl)-5,6,7,8-tetrahydroimidazo[1,2-a]pyridine-3-carboxamide] it is 20 to 100 nM. `CNc1cc2ncc(-c3cc(NC(=O)c4ccnc(C5(F)CC5)c4)c(F)cc3C)cc2cn1` [Compound 221, N-(2-fluoro-4-methyl-5-(7-(methylamino)-1,6-naphthyridin-3-yl)phenyl)-2-(1-fluorocyclopropyl)isonicotinamide] showed a GI50 of 20 to 100 nM.

Compound `CNc1cc2ncc(-c3cc(NC(=O)c4ccnc(C(C)(C)F)c4)c(F)cc3C)cc2cn1` [Compound 222, N-(2-fluoro-4-methyl-5-(7-(methylamino)-1,6-naphthyridin-3-yl)phenyl)-2-(2-fluoropropan-2-yl)isonicotinamide] registered a GI50 of 20 to 100 nM. Under `CNc1cc2ncc(-c3cc(NC(=O)c4cccc(C(C)(C)C#N)c4)c(F)cc3C)cc2cn1` [Compound 223, 3-(2-cyanopropan-2-yl)-N-(2-fluoro-4-methyl-5-(7-(methylamino)-1,6-naphthyridin-3-yl)phenyl)benzamide] stands 20 to 100 nM. In the case of `CNc1cc2ncc(-c3cc(NC(=O)c4cc(C(F)(F)F)ccn4)c(F)cc3C)cc2cn1` [Compound 224, N-(2-fluoro-4-methyl-5-(7-(methylamino)-1,6-naphthyridin-3-yl)phenyl)-4-(trifluoromethyl)picolinamide], the GI50 lay within 100 to 500 nM. As to `CNc1cc2ncc(-c3cc(NC(=O)c4cnc5n4CC(C)CC5)cnc3C)cc2cn1` (centres unmarked) [Compound 225, 6-methyl-N-(6-methyl-5-(7-(methylamino)-1,6-naphthyridin-3-yl)pyridin-3-yl)-5,6,7,8-tetrahydroimidazo[1,2-a]pyridine-3-carboxamide], the 50% growth inhibitory concentration (GI50) lay within 20 to 100 nM. The figure for `CNc1cc2ncc(-c3cc(NC(=O)c4ccccc4NC(C)C(F)F)cnc3C)cc2cn1` (centres unmarked) [Compound 226, 2-((1,1-difluoropropan-2-yl)amino)-N-(6-methyl-5-(7-(methylamino)-1,6-naphthyridin-3-yl)pyridin-3-yl)benzamide] is 20 to 100 nM; for `CCC(C)c1ccnc(C(=O)Nc2cnc(C)c(-c3cnc4cc(NC)ncc4c3)c2)c1` (centres unmarked) [Compound 227, 4-(sec-butyl)-N-(6-methyl-5-(7-(methylamino)-1,6-naphthyridin-3-yl)pyridin-3-yl)picolinamide] it is 20 to 100 nM. Take `CNc1cc2ncc(-c3cc(NC(=O)c4noc5c4CCCC5)ccc3C)cc2cn1` [Compound 228, N-(4-methyl-3-(7-(methylamino)-1,6-naphthyridin-3-yl)phenyl)-4,5,6,7-tetrahydrobenzo[d]isoxazole-3-carboxamide]: the GI50 fell in the range of 100 to 500 nM. The figure for `CNc1cc2ncc(-c3cc(NC(=O)c4n[nH]c5c4CCCC5)cnc3C)cc2cn1` [Compound 229, N-(6-methyl-5-(7-(methylamino)-1,6-naphthyridin-3-yl)pyridin-3-yl)-4,5,6,7-tetrahydro-1H-indazole-3-carboxamide] is 20 to 100 nM.

`CNc1cc2ncc(-c3cc(NC(=O)c4cnc5n4CCCCC5)cnc3C)cc2cn1` [Compound 232, N-(6-methyl-5-(7-(methylamino)-1,6-naphthyridin-3-yl)pyridin-3-yl)-6,7,8,9-tetrahydro-5H-imidazo[1,2-a]azepine-3-carboxamide] displayed a GI50 of 100 to 500 nM. In turn, `CNc1cc2ncc(-c3cc(NC(=O)c4nn(C)c5c4CCCC5)cnc3C)cc2cn1` [Compound 233, 1-methyl-N-(6-methyl-5-(7-(methylamino)-1,6-naphthyridin-3-yl)pyridin-3-yl)-4,5,6,7-tetrahydro-1H-indazole-3-carboxamide] returned a GI50 of 20 to 100 nM.
